Measured values published in PubChem BioAssay (NCI).
Several values for one entry are separate records, joined by “and”; a condition that tells them apart may be missing. Equal entries are not always repeated.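 How tested: cells in 96-well plates exposed to compound for 48 hours at five concentrations. GI50: concentration for 50% inhibition of growth. TGI: concentration producing complete growth inhibition.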

Columns and labels:
Experiment in all cases: NCI anticancer screen, dose series, 48 h
DU-145 prostate = system: DU-145 prostate
OVCAR-4 ovarian = system: OVCAR-4 ovarian
LOX IMVI melanoma = system: LOX IMVI melanoma
RXF 393 renal = system: RXF 393 renal
SK-OV-3 ovarian = system: SK-OV-3 ovarian
HCT-15 colon = system: HCT-15 colon
SN12C renal = system: SN12C renal
KM12 colon = system: KM12 colon
MOLT-4 leukemia = system: MOLT-4 leukemia
NCI-H226 lung = system: NCI-H226 lung

For COc1ccc(Nc2nc3ccccc3c3occc23)cc1, which GI50 (DU-145 prostate) is on record?
The GI50 was 6.65 µM.

And the TGI (DU-145 prostate)?
The TGI was 13.1 µM.

And the GI50 (OVCAR-4 ovarian)?
The GI50 was 9.2 µM.

What about the TGI (OVCAR-4 ovarian) of the same compound?
Its TGI is 39.7 µM.

And the GI50 (LOX IMVI melanoma)?
The GI50 was 0.649 µM.

What about the TGI (LOX IMVI melanoma) of the same compound?
The TGI was 5.32 µM.

And the GI50 (RXF 393 renal)?
Its GI50 is 5.42 µM.

What about the TGI (RXF 393 renal) of the same compound?
Its TGI is 19.1 µM.

And the GI50 (SK-OV-3 ovarian)?
Its GI50 is 0.005 µM.

What about the TGI (SK-OV-3 ovarian) of the same compound?
The TGI was 9.95 µM.

And the GI50 (HCT-15 colon)?
Its GI50 is 2.95 µM.

What about the TGI (HCT-15 colon) of the same compound?
The TGI was 10.7 µM.

And the GI50 (SN12C renal)?
The GI50 was 7.37 µM.

What about the TGI (SN12C renal) of the same compound?
Its TGI is 17.5 µM.

What about the GI50 (KM12 colon) of the same compound?
Its GI50 is 1.78 µM.

What about the TGI (KM12 colon) of the same compound?
The TGI was 7.99 µM.

For O=C(/C=C/c1ccc(O)c(O)c1)NCc1c[nH]c2ccccc12, which GI50 (DU-145 prostate) is on record?
The GI50 was 78.3 µM.

What about the TGI (DU-145 prostate) of the same compound?
Its TGI is over 100 µM.

And the GI50 (OVCAR-4 ovarian)?
The GI50 was over 100 µM.

And the TGI (OVCAR-4 ovarian)?
Its TGI is over 100 µM.

And the GI50 (LOX IMVI melanoma)?
Its GI50 is 60 µM.

And the TGI (LOX IMVI melanoma)?
The TGI was over 100 µM.

And the GI50 (RXF 393 renal)?
The GI50 was over 100 µM.

And the TGI (RXF 393 renal)?
Its TGI is over 100 µM.

What about the GI50 (MOLT-4 leukemia) of the same compound?
Its GI50 is 25.8 µM.

What about the TGI (MOLT-4 leukemia) of the same compound?
Its TGI is over 100 µM.

What about the GI50 (HCT-15 colon) of the same compound?
Its GI50 is 44.2 µM.

And the TGI (HCT-15 colon)?
Its TGI is over 100 µM.

And the GI50 (NCI-H226 lung)?
The GI50 was 71.3 µM.

And the TGI (NCI-H226 lung)?
Its TGI is over 100 µM.

And the GI50 (SN12C renal)?
Its GI50 is 28.4 µM.

And the TGI (SN12C renal)?
The TGI was 84.7 µM.

And the GI50 (KM12 colon)?
Its GI50 is 66.7 µM.

And the TGI (KM12 colon)?
Its TGI is over 100 µM.

With COc1ccc(OC(C(=O)O)C(C)C)c2c1CCCC2=O (stereo not given) as the compound, how does the TGI (OVCAR-4 ovarian) read?
Its TGI is over 100 µM.

What about the TGI (LOX IMVI melanoma) of the same compound?
The TGI was over 100 µM.

And the TGI (MOLT-4 leukemia)?
Its TGI is over 100 µM.

And the TGI (SK-OV-3 ovarian)?
The TGI was over 100 µM.

And the TGI (HCT-15 colon)?
The TGI was over 100 µM.

And the TGI (SN12C renal)?
Its TGI is over 100 µM.

What about the TGI (KM12 colon) of the same compound?
Its TGI is over 100 µM.

Which GI50 (LOX IMVI melanoma) does the source give for COc1ccc2c(c1OC)-c1c(c3ccc([N+](=O)[O-])cc3c(=O)n1CCCBr)C2=O here?
The GI50 was 12.7 µM.

And the TGI (LOX IMVI melanoma)?
The TGI was 45.5 µM.

And the GI50 (MOLT-4 leukemia)?
The GI50 was 18.9 µM.

What about the TGI (MOLT-4 leukemia) of the same compound?
Its TGI is 52.7 µM.

And the GI50 (SK-OV-3 ovarian)?
The GI50 was over 100 µM.

And the TGI (SK-OV-3 ovarian)?
Its TGI is over 100 µM.

What about the GI50 (NCI-H226 lung) of the same compound?
Its GI50 is 26.8 µM.

What about the TGI (NCI-H226 lung) of the same compound?
Its TGI is 84.3 µM.

And the GI50 (SN12C renal)?
The GI50 was 36.2 µM.

What about the TGI (SN12C renal) of the same compound?
Its TGI is over 100 µM.

What about the GI50 (KM12 colon) of the same compound?
The GI50 was over 100 µM.

What about the TGI (KM12 colon) of the same compound?
The TGI was over 100 µM.

CNNC(=N\S(=O)(=O)c1cc(C)c(Cl)cc1SCc1ccccc1)/N=C/c1ccc([N+](=O)[O-])s1 was tested. Which GI50 (DU-145 prostate) did it give?
The GI50 was over 100 µM.

And the TGI (DU-145 prostate)?
The TGI was over 100 µM.

What about the GI50 (OVCAR-4 ovarian) of the same compound?
The GI50 was over 100 µM.

And the TGI (OVCAR-4 ovarian)?
The TGI was over 100 µM.

And the GI50 (LOX IMVI melanoma)?
Its GI50 is over 77.2 µM.

What about the TGI (LOX IMVI melanoma) of the same compound?
The TGI was over 100 µM.

What about the GI50 (RXF 393 renal) of the same compound?
Its GI50 is over 100 µM.

And the TGI (RXF 393 renal)?
Its TGI is over 100 µM.

And the GI50 (MOLT-4 leukemia)?
Its GI50 is over 100 µM.

And the TGI (MOLT-4 leukemia)?
Its TGI is over 100 µM.

What about the GI50 (SK-OV-3 ovarian) of the same compound?
Its GI50 is over 100 µM.

What about the TGI (SK-OV-3 ovarian) of the same compound?
The TGI was over 100 µM.

What about the TGI (HCT-15 colon) of the same compound?
The TGI was over 100 µM.

What about the GI50 (SN12C renal) of the same compound?
The GI50 was over 100 µM.

What about the TGI (SN12C renal) of the same compound?
The TGI was over 100 µM.

What about the GI50 (KM12 colon) of the same compound?
Its GI50 is 3.03 µM.

And the TGI (KM12 colon)?
Its TGI is over 100 µM.

Which GI50 (OVCAR-4 ovarian) does the source give for CC(C)(O)/C=C/C(=O)[C@](C)(O)[C@H]1[C@H](O)C[C@@]2(C)[C@@H]3CC=C4[C@@H](C[C@H](O)C(=O)C4(C)C)[C@]3(C)C(=O)C[C@]12C here?
Its GI50 is 0.161 µM and 0.891 µM.

And the GI50 (LOX IMVI melanoma)?
Its GI50 is 0.0441 µM.

And the TGI (LOX IMVI melanoma)?
The TGI was 0.198 µM and 0.193 µM.

What about the GI50 (RXF 393 renal) of the same compound?
Its GI50 is 0.187 µM.

What about the TGI (RXF 393 renal) of the same compound?
The TGI was 0.408 µM and 0.263 µM.

What about the GI50 (MOLT-4 leukemia) of the same compound?
Its GI50 is 0.709 µM.

What about the TGI (MOLT-4 leukemia) of the same compound?
The TGI was 11.8 µM.

And the GI50 (SK-OV-3 ovarian)?
Its GI50 is 0.566 µM.

And the TGI (SK-OV-3 ovarian)?
The TGI was 0.977 µM and 4.71 µM.

And the GI50 (HCT-15 colon)?
Its GI50 is 0.0862 µM and 0.159 µM.

What about the GI50 (NCI-H226 lung) of the same compound?
The GI50 was 0.174 µM.

What about the TGI (NCI-H226 lung) of the same compound?
Its TGI is 0.642 µM and 0.913 µM.

What about the GI50 (SN12C renal) of the same compound?
The GI50 was 0.355 µM.

What about the TGI (SN12C renal) of the same compound?
Its TGI is 28 µM.

And the GI50 (KM12 colon)?
Its GI50 is 0.948 µM.

And the TGI (KM12 colon)?
The TGI was 25 µM.

Which TGI (OVCAR-4 ovarian) does the source give for O=C1C(=O)N(c2ccc(Cl)cc2)C(=O)C(=O)C1c1nc2ccccc2s1 here?
The TGI was over 100 µM.

What about the TGI (LOX IMVI melanoma) of the same compound?
Its TGI is over 100 µM.

And the TGI (RXF 393 renal)?
The TGI was over 100 µM.

What about the TGI (MOLT-4 leukemia) of the same compound?
Its TGI is over 100 µM.

And the TGI (SK-OV-3 ovarian)?
Its TGI is over 100 µM.

And the TGI (HCT-15 colon)?
The TGI was over 100 µM.

And the TGI (NCI-H226 lung)?
Its TGI is over 100 µM.

And the TGI (SN12C renal)?
The TGI was over 100 µM.

What about the TGI (KM12 colon) of the same compound?
The TGI was over 100 µM.

What does the source list for Clc1cccc(N2CCN(CCCN3CCc4c([nH]c5ccccc45)C3c3cccnc3)CC2)c1 (stereo not given)?
TGI (OVCAR-4 ovarian): 25.1 µM; TGI (LOX IMVI melanoma): 37.9 µM; GI50 (RXF 393 renal): 11.5 µM; TGI (RXF 393 renal): 31 µM; GI50 (MOLT-4 leukemia): 5.33 µM; TGI (MOLT-4 leukemia): 39.8 µM; TGI (SK-OV-3 ovarian): 32.2 µM; TGI (HCT-15 colon): 21.8 µM; TGI (NCI-H226 lung): 35.8 µM; TGI (SN12C renal): 30.3 µM
